Entries after “also recorded” stand apart in the source; their conditions may differ.
Key:
[1] = test system: cortical cells, inferior olivary cells and thalamic reticular cells; conditions: cited from earlier work
[2] = test system: H-reflex (hyper-reflexia) in spinally transected rats; experiment: H-reflex frequency-dependent depression in spinally transected rats; assay type: in vivo, rat; conditions: no exercise, 3 mg/Kg/day modafinil p.o. for 30 days, measured 30 days after transection, compared with Tx-30, MBET 30 and control
Protocol: Adult female Sprague-Dawley rats (Harlan, 200-250 g, n=40) underwent a lower thoracic laminectomy under ketamine (60 mg/kg, i.m.) and xylazine (10 mg/kg, i.m.) anesthesia. A complete transection (Tx) of the spinal cord was made by aspiration and the transected ends of the cord retracted, producing a 2-3 mm cavity. Gelfoam was inserted into the cavity to facilitate hemostasis and the dura was closed over the Tx site. Muscle and skin were sutured in separate layers, and animals were provided with dextrose-saline (5%, 1 ml/100 g body weight, s.c.) to replace fluid lost during the surgical procedure. […] Animals were monitored for signs of urinary tract infection, and treatment with Baytril (enroflaxin 0.2 mg/day, i.m. for 10 days) was instituted as needed. […]
Stimulation of the tibial nerve under the calcaneal tendon produced two responses, an early M-wave (2 ms latency), produced by direct activation of motoneuronal axons in the tibial nerve, and a later H-reflex (8 ms latency), produced by activation of muscle afferents in the tibial nerve, which synapse monosynaptically on plantar motoneurons. The degree of stimulation that induced frequency-dependent depression of the H-reflex was determined. […] The change in the response at various frequencies was calculated as the percent of the response at 0.2 Hz in order to determine depression of the H-reflex as a function of stimulation frequency. […]

For NC(=O)C[S+]([O-])C(c1ccccc1)c1ccccc1 (centres unmarked) [modafinil], the electrical coupling [1] is listed as “increases electrical coupling” and the “H-reflex amplitude at stimulation frequencies from 0.2 to 10 Hz (habituation / hyper-reflexia)” value [2] is listed as “as effective as passive exercise in normalizing exaggerated reflexes; also recorded: decreased (normalized) the H-reflex amplitude to the same extent as 30 days of exercise; also recorded: the reflexes were normalized; also recorded: effective in reducing hyper-reflexia after spinal transection”.
